Data taken from US10004716B2, “Therapeutic/ preventive agent containing coumarin derivative as active ingredient” (NIPPON ZOKI PHARMACEUTICAL CO., LTD., priority 2014, dated 2018).

How the values were obtained:
[1] = test system: mice where pulmonary fibrosis was induced by bleomycin; test: Lung wet weight increase of mice where pulmonary fibrosis was induced by bleomycin; type: in vivo; settings: ICR male mice, bleomycin 2 mg/kg i.v. 5 days; test substance 50 mg/kg or pirfenidone 200 mg/kg per os twice daily for 2 weeks; normal control 205, diseased control 303
Method: Bleomycin (2 mg/kg) was repeatedly injected intravenously for 5 days to ICR male mice. The mice were organized into 4 groups of normal control group, diseased control group, test substance-administered group and pirfenidone-administered group.
A test substance was suspended in 0.5 w/v % carboxymethyl cellulose sodium (CMC) and 50 mg/kg thereof was repeatedly administered per os with stirring twice daily for 2 weeks using an oral sonde for rats. Pirfenidone was suspended in 0.5 w/v % CMC and 200 mg/kg thereof was repeatedly administered per os with stirring twice daily for 2 weeks using an oral sonde for rats. To the normal control group and the diseased control group, 0.5 w/v % CMC was repeatedly administered per os according to the same administration schedule. After finishing the administration period, both lungs were excised from the mice and their wet weight was measured.

[2] = test system: fibronectin gene expression; test: Evaluation II: TGF-β-induced gene expression of fibrosis-related factors in NHLF cells: fibronectin; type: cell-based, human; settings: 30 μM test substance, 200 μg/mL pirfenidone, 30 μM DEX, 1.0 μM TPCA-1 or 10 μM FP 2 hours, then TGF-β 0.5 ng/mL 4 hours, n = 4
Method: (§1) NHLF cells were sown so as to make their amount 5×10^4 cells/well to each well of a 12-well plate and incubated to an extent of 80% confluent in a medium where fibroblast growth medium 2 supplement mix (FGM-2 SingleQuots, Lonza) was added to a fibroblast basal medium (FBM, Lonza). After that, incubation was conducted for 2 hours in a DMEM medium containing 30 μM of a test substance, 200 μg/mL of pirfenidone, 30 μM of dexamethasone (DEX), 1.0 μM of TPCA-1 or 10 μM of fluticasone propionate (FP) and, after TGF-β was added thereto so as to make its final concentration 0.5 ng/mL, incubation was carried out for 4 hours more.
(§2) With regard to the extraction of RNA from NHLF cells, the synthesis of cDNA from RNA and the action of the test substance to gene expression of fibrosis-related factors [CFGF, TGF-β1, fibronectin and Col 1], the tests were carried out in the same manners as in (2) and (3) of the above Test Example 3.

CTGF gene expression = test: Evaluation II: TGF-β-induced gene expression of fibrosis-related factors in NHLF cells: CTGF; type: cell-based, human; settings: 30 μM test substance, 200 μg/mL pirfenidone, 30 μM DEX, 1.0 μM TPCA-1 or 10 μM FP 2 hours, then TGF-β 0.5 ng/mL 4 hours, n = 4
Method: as §1, §2

TGF-β1 gene expression = test: Evaluation II: TGF-β-induced gene expression of fibrosis-related factors in NHLF cells: TGF-β1; type: cell-based, human; settings: 30 μM test substance, 200 μg/mL pirfenidone, 30 μM DEX, 1.0 μM TPCA-1 or 10 μM FP 2 hours, then TGF-β 0.5 ng/mL 4 hours, n = 4
Method: as §1, §2

[3] = test system: α-smooth muscle actin (SMA) gene expression; test: Evaluation I: TGF-β-induced gene expression of fibrosis-related factors in NHLF cells: α-SMA; type: cell-based, human; settings: 25 μmol/L test substance 2 hours, then TGF-β 5 ng/mL 24 hours, n = 3
Method: NHLF cells were sown so as to make their amount 4×10^4 cells/well to each well of a 12-well plate and incubated to an extent of 80% confluent in a medium where fibroblast growth medium 2 supplement mix (FGM-2 SingleQuots, Lonza) was added to a fibroblast basal medium (FBM, Lonza). After that, incubation was conducted for 2 hours in a Dulbecco modified Eagle medium (DMEM) containing 25 μmol/L of a test substance and, after addition of […] growth factor (TGF)-β thereto so as to make its final concentration 5 ng/mL, incubation was carried out for 24 hours more.
QIAzol Lysis Reagent (QIAGEN) (1 mL) was added to the above to suspend, 200 μL of chloroform was added thereto followed by mixing and centrifugation (at 4° C. and 1500 rpm) was then conducted whereby the supernatant liquid was recovered. Total RNA was extracted and purified by treating the supernatant liquid with QIACube (QIAGEN) and RNeasy Micro Kit (QIAGEN). cDNA was prepared from the total RNA using Omniscript RT kit (QIAGEN) and Oligo(dT)12-18 Primer (Invitrogen).
Gene expression level of the fibrosis-related factors [connective tissue growth factor (CTGF), α-smooth muscle actin (SMA), fibronectin, endothelin and type I collagen (Col 1)] was measured by a conventional real time PCR method using a fluorescent dye SYBR GREEN I (Roche Diagnostics) by Light Cycler LC 480 (the same) using cDNA synthesized from the total RNA extracted in the above (2). A calibration curve was prepared by diluting the PCR product quantified by PicoGreen dsDNA Quantitation kit (Molecular probes) (a DNA quantitation kit) to an extent of 10^2˜10^7 copies/μL. From each of the resulting quantified values, copy numbers per 10000 copies of GAPDH gene being an internal standard were calculated.

Col 1 gene expression = test: Evaluation II: TGF-β-induced gene expression of fibrosis-related factors in NHLF cells: Col 1; type: cell-based, human; settings: 30 μM test substance, 200 μg/mL pirfenidone, 30 μM DEX, 1.0 μM TPCA-1 or 10 μM FP 2 hours, then TGF-β 0.5 ng/mL 4 hours, n = 4
Method: as §1, §2

Row | Structure (SMILES) | Wet Lung Weight [1] | Copy Numbers per 10000 Copies of GAPDH Fibronectin [2] | Copy Numbers per 10000 Copies of GAPDH CTGF (CTGF gene expression) | Copy Numbers per 10000 Copies of GAPDH TGF-β1 (TGF-β1 gene expression) | Copy Numbers per 10000 Copies of GAPDH α-SMA [3] | Copy Numbers per 10000 Copies of GAPDH Col 1 (Col 1 gene expression)
1 | O=c1oc2c(OS(=O)(=O)c3cccc(Br)c3)cccc2cc1NS(=O)(=O)c1cccc(C(F)(F)F)c1 [Compound 60, 2-Oxo-3-[[3-(trifluoromethyl)phenyl]sulfonylamino]-chromen-8-yl 3-bromobenzenesulfonate] | 250 mg | 1446.2 copies per 10000 copies of GAP | 119.0 copies per 10000 copies of GAP | 707.1 copies per 10000 copies of GAP | 1324.8 copies per 10000 copies of GAP | 650.6 copies per 10000 copies of GAP
2 | O=c1oc2c(OS(=O)(=O)c3ccc(C(F)(F)F)cc3)cccc2cc1NS(=O)(=O)c1cccc(C(F)(F)F)c1 [Compound 57, 2-Oxo-3-[[3-(trifluoromethyl)phenyl]sulfonylamino]-chromen-8-yl 4-(trifluoromethyl)benzenesulfonate] |  |  |  |  | 1166.3 copies per 10000 copies of GAP | 
3 | O=c1oc2c(OS(=O)(=O)c3ccc(C(F)(F)F)cc3)cccc2cc1NS(=O)(=O)c1cccc(Br)c1 [Compound 58, 3-[(3-Bromophenyl)sulfonylamino]-2-oxochromen-8-yl 4-(trifluoromethyl)benzenesulfonate] |  | 1827.5 copies per 10000 copies of GAP | 115.8 copies per 10000 copies of GAP | 704.5 copies per 10000 copies of GAP | 826.9 copies per 10000 copies of GAP | 525.6 copies per 10000 copies of GAP
4 | O=c1oc2c(OS(=O)(=O)c3cccc(C(F)(F)F)c3)cccc2cc1NS(=O)(=O)c1ccc(C(F)(F)F)cc1 [Compound 68, 2-Oxo-3-[[4-(trifluoromethyl)phenyl]sulfonylamino]-chromen-8-yl 3-(trifluoromethyl)benzenesulfonate] |  |  |  |  | 1007.1 copies per 10000 copies of GAP | 
